Experimental data from PMC11396667, “Design, Synthesis, and Anticancer and Antibacterial Activities of Quinoline-5-Sulfonamides” (Molecules, 2024).
≈ marks a conversion by molar mass, not a printed value.

Columns and labels:
Format in all cases: cell-based
[1] = tested on: vancomycin-resistant E. faecalis VRE 725B; experiment: MIC, microtitration broth method, VRE3; settings: Enterococcus faecalis, 24 h, 37 °C, BHI broth
From the text: (§1) Since there is a general decrease in immunity during the treatment of oncological patients, i.e., patients are more susceptible to infectious diseases, it is advantageous if anticancer agents show antimicrobial properties at the same time. Therefore, the effects of the compounds were also investigated against Gram-positive bacteria. For this purpose, the susceptible collection strains of aerobic Staphylococcus aureus ATCC 29213 and facultatively aerobic Enterococcus faecalis ATCC 29212 and resistant clinical isolates of methicillin-resistant S. aureus (MRSA) SA 3202, SA 630 carrying the mecA gene, and vancomycin-resistant isolates of E. faecalis (VRE) 342B, 368, and 725B carrying the vanA gene were selected. Thus, the selection of the studied bacterial strains was adopted following the CLSI ([…]) international reference methodologies.
(§2) The in vitro antibacterial activity of the synthesized compounds was evaluated against representatives of multidrug-resistant bacteria, […] clinical isolates of methicillin-resistant S. aureus: clinical isolates of human origin, MRSA SA 3202, and MRSA SA 630 (National Institute of Public Health, Prague, Czech Republic), carrying the mecA gene. These two clinical isolates were classified as vancomycin-susceptible (but with a higher MIC of vancomycin equal to 2 μg/mL (VA2-MRSA). Vancomycin- and methicillin-susceptible S. aureus ATCC 29213 and vancomycin-susceptible Enterococcus faecalis ATCC 29212, obtained from the American Type Culture Collection, were used as the reference and quality control strains. Three vanA gene-carrying vancomycin-resistant isolates of E. faecalis (VRE 342B, VRE 368, VRE 725B) (Department of Infectious Diseases and Microbiology, Faculty of Veterinary Medicine, University of Veterinary Sciences Brno, Czech Republic) were provided by Oravcova et al..
(§3) The minimum inhibitory concentrations (MICs) were evaluated by the microtitration broth method according to the CLSI, with some modifications. The compounds were dissolved in DMSO (Sigma, St. Louis, MO, USA) to obtain a concentration of […] and diluted in a microtitration plate in an appropriate medium, i.e., Cation-Adjusted Mueller–Hinton Broth (CaMH, Oxoid, Basingstoke, UK) for staphylococci, and Brain Heart Infusion Broth (BHI, Oxoid) for enterococci to reach the final concentration of 256–0.125 µg/mL. Microtiter plates were inoculated with test microorganisms so that the final concentration of bacterial cells was 10^5. Ampicillin, oxacillin, and ciprofloxacin (Sigma) were used as reference drugs. A drug-free control and a sterility control were included. The plates were incubated for 24 h at 37 °C for staphylococci and enterococci. […] The experiments were repeated three times.

[2] = tested on: Staphylococcus aureus ATCC 29213; experiment: MBC, agar aliquot subculture method, SA; settings: ATCC29213, 99.9% decrease in CFU, 24 h, 37 °C
From the text: The activities of the individual derivatives were expressed as minimum inhibitory concentrations (MICs) and minimum bactericidal concentrations (MBCs) and are shown in Table 3 together with the values of the antibiotics used as standards for comparison. […] MBC values of bactericidal compounds are indicated in bold in Table 3.
For the above-mentioned strains/isolates, the agar aliquot subculture method was used as a test for bactericidal agents. After the MIC value determination, the inoculum was transferred to CaMH (Oxoid) for staphylococci, and BHI (Oxoid) for enterococci medium using a multipoint inoculator. The plates were incubated in a thermostat at 37 °C for 24 h. The lowest concentration of test compound at which ≤5 colonies were obtained was then evaluated as MBC, corresponding to a 99.9% decrease in CFU relative to the original inoculum.

[3] = tested on: vancomycin-resistant E. faecalis VRE 342B; experiment: MIC, microtitration broth method, VRE1; settings: Enterococcus faecalis, 24 h, 37 °C, BHI broth
From the text: as §1, §2, §3

[4] = tested on: Staphylococcus aureus ATCC 29213; experiment: MIC, microtitration broth method, SA; settings: ATCC29213, 24 h, 37 °C, CaMH broth
From the text: as §1, §2, §3

[5] = tested on: vancomycin-resistant E. faecalis VRE 368; experiment: MIC, microtitration broth method, VRE2; settings: Enterococcus faecalis, 24 h, 37 °C, BHI broth
From the text: as §1, §2, §3

[6] = tested on: Enterococcus faecalis ATCC 29212; experiment: MIC, microtitration broth method, EF; settings: ATCC29212, 24 h, 37 °C, BHI broth
From the text: as §1, §2, §3

[7] = tested on: A549 (human lung adenocarcinoma) cells; experiment: WST-1 cell viability assay, A549; settings: Homo sapiens, A549; WST-1, 72 h exposure, ± SD, n = 6
Experimental: The synthesized compounds were tested using three cancer cell lines—human amelanotic melanoma (C-32), human breast adenocarcinoma (MDA-MB-231), and human lung adenocarcinoma (A549)—and, for comparison, normal human dermal fibroblasts (HFF-1). The WST-1 (water-soluble tetrazole salt) assay was used to evaluate the effect of the synthesized compounds on the viability of cultured cells.
Compounds were evaluated for their antiproliferative activity using three cultured cell lines: C-32 (human amelanotic melanoma, ATCC, Manassas, VA, USA), A549 (human lung adenocarcinoma, ATCC, Manassas, VA, USA), MDA-MB-231 (human breast adenocarcinoma derived from metastatic site: pleural effusion, ATCC, Manassas, VA, USA), together with HFF-1 (normal human dermal fibroblasts, ATCC, Manassas, VA, USA). The cultured cells were kept at 37 °C and 5% CO2.
Cells were seeded in 96-well plates at 5000/well in 100 μL of medium. After 24 h of incubation, the medium was replaced with a new one with the addition of the test substance. After 72 h, the following tests were performed: with crystal violet (determination of the number of adherent cells in the culture), the WST-1 test (determination of the relative number of living cells and their metabolic activity), and the LDH test (determination of the relative number of dead cells in cultures—cytotoxicity of the tested substance).
WST-1 test: The WST-1 test (Roche Diagnostics, Mannheim, Germany) allows one to determine the relative number of cells in cultures. Absorbance is directly proportional to the number of cells and their metabolic activity. The absorbance measurement is performed at λ = 450 nm (reference wave 600 nm).

Compound	MIC [1] [µM]	MBC [2] [µM]	MIC [3] [µM]	MIC [4] [µM]	MIC [5] [µM]	MIC [6] [µM]	IC50 [7] [µM]
C#CCOc1ccc(NS(=O)(=O)c2ccc(O)c3ncccc23)cc1 [3d, 8-Hydroxy-N-[4-(prop-2-yn-1-yloxy)phenyl]quinoline-5-sulfonamide]	362 (≈ 128 µg/mL)	45.2 (≈ 16 µg/mL)	362 (≈ 128 µg/mL)	45.2 (≈ 16 µg/mL)	362 (≈ 128 µg/mL)	362 (≈ 128 µg/mL)	12.9 ± 1.1
C#CCN(C)S(=O)(=O)c1ccc(O)c2ncccc12 [3c, 8-Hydroxy-N-methyl-N-(prop-2-yn-1-yl)quinoline-5-sulfonamide]	464 (≈ 128 µg/mL)	29 (≈ 8.01 µg/mL)	464 (≈ 128 µg/mL)	29 (≈ 8.01 µg/mL)	464 (≈ 128 µg/mL)	464 (≈ 128 µg/mL)	13.9 ± 0.6
C#CCOc1cccc(NS(=O)(=O)c2ccc(O)c3ncccc23)c1 [3e, 8-Hydroxy-N-[3-(prop-2-yn-1-yloxy)phenyl]quinoline-5-sulfonamide]	362 (≈ 128 µg/mL)	45.2 (≈ 16 µg/mL)	362 (≈ 128 µg/mL)	45.2 (≈ 16 µg/mL)	362 (≈ 128 µg/mL)	362 (≈ 128 µg/mL)	11.5 ± 0.7
C#CC(C)(C)NS(=O)(=O)c1ccc(O)c2ncccc12 [3b, 8-Hydroxy-N-(1,1-dimethylprop-2-yn-1-yl)quinoline-5-sulfonamide]	883 (≈ 256 µg/mL)	110 (≈ 31.9 µg/mL)	883 (≈ 256 µg/mL)	55.2 (≈ 16 µg/mL)	883 (≈ 256 µg/mL)	883 (≈ 256 µg/mL)	17.2 ± 1.5
C#CCNS(=O)(=O)c1ccc(O)c2ncccc12 [3a, 8-Hydroxy-N-(prop-2-yn-1-yl)quinoline-5-sulfonamide]	977 (≈ 256 µg/mL)	122 (≈ 32 µg/mL)	977 (≈ 256 µg/mL)	122 (≈ 32 µg/mL)	977 (≈ 256 µg/mL)	977 (≈ 256 µg/mL)	23.1 ± 0.7
C#CCOc1ccccc1NS(=O)(=O)c1ccc(O)c2ncccc12 [3f, 8-Hydroxy-N-[2-(prop-2-yn-1-yloxy)phenyl]quinoline-5-sulfonamide]	362 (≈ 128 µg/mL)	45.2 (≈ 16 µg/mL)	362 (≈ 128 µg/mL)	45.2 (≈ 16 µg/mL)	362 (≈ 128 µg/mL)	362 (≈ 128 µg/mL)	19.1 ± 0.8
